Results as given in patent US11607414B2, “Small molecule inhibitors of EGFR and PI3K” (The Regents of the University of Michigan, priority 2014, dated 2023).

Columns and labels:
[1] = system: phosphorylation of AKT in HCT-116 tumors; experiment: In vivo pharmacodynamics in subcutaneous HCT-116 tumors, pAKT; settings: single oral dose 100 mg/kg, two hours post-dosing
Excerpt: However, additional synthesis of MOL-162 is needed to allow a full pharmacodynamic time course study to be carried out to determine the maximal degree of target inhibition of both targets after single and repeated daily dosing.

[2] = Solubility comparison; assay type: physicochemical
[3] = system: pAKT and pEGFR in HCT-116 cells; experiment: Effect on pAKT and pEGFR in HCT-116 cells (Western blot); assay type: cell-based
Experimental: [50 mmol/L Tris-HCl (pH 8.0), 150 mmol/L NaCl, 1% NP40, 0.5% Na-deoxycholate, 0.1% SDS, containing protease (P8340, Sigma, St. Louis, Mo.) and phosphatase (P5726, Sigma) inhibitor cocktails]. The soluble protein concentration was determined by micro-bovine serum albumin assay (Pierce, Rockford, Ill.). Protein immunodetection was done by electrophoretic transfer of SDS-PAGE separated proteins to nitrocellulose, incubation with antibody, and chemiluminescent second step detection (PicoWest, Pierce). The antibodies included EGFR, phospho-EGFR (Y1068), phospho-p42/p44, phospho-Akt (473), phospho-Akt (308), total Akt, phosho-S6 (235/236), and total S6. All antibodies were obtained from Cell Signaling Technologies (Danvers, Mass.). […]
Cell extracts were prepared by detergent lysis [25 mmol/L Tris-HCl (pH 7.6), 150 mmol/L NaCl, 1% Nonidet P-40, 10% glycerol, 1 mM EDTA, 1 mmol/L dithiothreitol (DTT), and protease and phosphatase inhibitors, rocked for 30 minutes at 4° C., and centrifuged at 14,000 rpm for 20 min at 4° C. Protein concentration was determined by BioRad Protein Assays and lysates were subsequently subjected to SDS gel electrophoresis. […] After incubation with either anti-rabbit HRP or anti-mouse HRP linked secondary antibody (Jackson ImmunoResearch Laboratories, Inc.), proteins were detected using chemiluminescence (GE Healthcare).

[4] = target: PIK3CA (Homo sapiens, UniProt P42336); experiment: ADAPTA universal kinase assay, PIK3CA; assay type: biochemical
Experimental: Various compounds were tested for their ability to inhibit EGFR and PIK3CA. The assays determining inhibitions are given in Example 2 Assays-Z′-LYTE® and ADAPTA.
Enzyme: The ADAPTA universal kinase assay is a homogenous, fluorescent based immunoassay for the detection of ADP. In contrast to ATP depletion assays, the ADAPTA assay is extremely sensitive to ADP formation such that a majority of the signal change occurs in the first 10-20% conversion of ATP to ADP. This makes the ADAPTA universal kinase assay ideally suited for use with low activity kinases.
The principle of the ADAPTA universal kinase assay is outlined below. The assay itself can be divided into two phases: a kinase reaction phase, and an ADP detection phase. […]
ADP formation is determined by calculating the emission ratio from the assay well. The emission ratio is calculated by dividing the intensity of the tracer (acceptor) emission by the intensity of the Eu (donor) emission at 615 nm as shown in the equation below.
Adapta® Assay Conditions' • Test Compounds: The Test Compounds are screened in 1% DMSO (final) in the well. […] ATP Km apparent is previously determined using a radiometric assay except when no substrate is available in which case an Adapta® assay is conducted. • Detection Mix: The Detection Mix is prepared in TR-FRET Dilution Buffer. […] Read on fluorescence plate reader and analyze the data.

PIK3CA, sequence (P42336 whole entry): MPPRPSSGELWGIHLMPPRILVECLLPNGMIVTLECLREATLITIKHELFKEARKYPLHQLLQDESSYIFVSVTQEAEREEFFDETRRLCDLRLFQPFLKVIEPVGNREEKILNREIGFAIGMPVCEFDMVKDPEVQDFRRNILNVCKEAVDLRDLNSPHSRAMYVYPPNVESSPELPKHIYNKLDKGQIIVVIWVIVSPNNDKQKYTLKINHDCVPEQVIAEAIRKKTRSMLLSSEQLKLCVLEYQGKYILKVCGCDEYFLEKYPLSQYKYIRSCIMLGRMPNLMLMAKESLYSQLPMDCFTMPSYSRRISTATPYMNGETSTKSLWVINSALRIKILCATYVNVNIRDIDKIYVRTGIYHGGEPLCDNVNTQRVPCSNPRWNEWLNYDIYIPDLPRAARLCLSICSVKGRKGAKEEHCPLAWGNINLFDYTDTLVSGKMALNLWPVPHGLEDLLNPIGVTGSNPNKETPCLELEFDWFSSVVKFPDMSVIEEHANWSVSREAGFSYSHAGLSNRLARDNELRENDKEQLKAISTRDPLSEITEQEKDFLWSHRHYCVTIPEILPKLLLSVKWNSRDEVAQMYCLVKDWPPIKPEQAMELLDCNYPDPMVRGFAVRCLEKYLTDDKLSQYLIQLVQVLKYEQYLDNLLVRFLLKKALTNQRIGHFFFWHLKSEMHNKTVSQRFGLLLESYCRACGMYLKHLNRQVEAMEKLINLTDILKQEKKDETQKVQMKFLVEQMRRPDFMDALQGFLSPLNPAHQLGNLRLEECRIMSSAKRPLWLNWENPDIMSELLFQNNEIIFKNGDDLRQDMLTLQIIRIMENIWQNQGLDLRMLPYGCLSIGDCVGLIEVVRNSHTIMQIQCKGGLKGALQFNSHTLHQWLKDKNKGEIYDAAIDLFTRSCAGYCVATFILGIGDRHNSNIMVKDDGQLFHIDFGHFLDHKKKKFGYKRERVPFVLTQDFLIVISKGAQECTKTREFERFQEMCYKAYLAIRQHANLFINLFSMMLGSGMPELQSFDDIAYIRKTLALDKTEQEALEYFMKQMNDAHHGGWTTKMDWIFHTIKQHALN
PIK3CA, sequence (P27986 whole entry partner): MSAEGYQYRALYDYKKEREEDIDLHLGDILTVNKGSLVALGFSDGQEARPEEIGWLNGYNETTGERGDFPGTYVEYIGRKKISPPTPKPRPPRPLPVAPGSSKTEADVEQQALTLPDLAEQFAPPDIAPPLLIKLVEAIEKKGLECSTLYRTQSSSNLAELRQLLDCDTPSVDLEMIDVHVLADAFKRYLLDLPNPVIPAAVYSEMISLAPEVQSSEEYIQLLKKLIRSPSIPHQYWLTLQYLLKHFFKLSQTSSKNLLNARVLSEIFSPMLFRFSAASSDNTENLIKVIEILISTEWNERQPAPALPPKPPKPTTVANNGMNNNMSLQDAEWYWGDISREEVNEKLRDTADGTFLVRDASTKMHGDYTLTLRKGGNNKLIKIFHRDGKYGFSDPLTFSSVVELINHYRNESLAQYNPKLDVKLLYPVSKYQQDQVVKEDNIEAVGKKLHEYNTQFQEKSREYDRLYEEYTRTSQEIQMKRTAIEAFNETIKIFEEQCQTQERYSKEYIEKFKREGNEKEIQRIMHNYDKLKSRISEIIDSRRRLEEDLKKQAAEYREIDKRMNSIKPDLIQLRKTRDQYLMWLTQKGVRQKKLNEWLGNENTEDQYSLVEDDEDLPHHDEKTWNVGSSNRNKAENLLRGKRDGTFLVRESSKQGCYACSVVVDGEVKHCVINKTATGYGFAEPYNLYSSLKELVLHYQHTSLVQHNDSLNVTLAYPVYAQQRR

CS(=O)(=O)Nc1cncc(-c2ccc3ncnc(Nc4cccc(Cl)c4)c3c2)c1 [MOL-162, N-(5-(4-((3-chlorophenyl)amino)quinazolin-6-yl)pyridin-3-yl)methanesulfonamide]
phosphorylation of AKT in tumors [1]: not as strongly inhibited | solubility (comparison) [2]: significantly more soluble than MOL-153 | cellular modulation of EGFR and PI3K pathways [3]: cellular modulation of both pathways | inhibition of / potency against purified PIK3CA (in words) [4]: potent dual inhibition
